For 14 molecules, EC50 results are on record in US12503436B2, “Compounds and compositions for treating conditions associated with STING activity” (NOVARTIS PHARMA AG, priority 2021, dated 2025).

Sequence of STING (Q86WV6 whole entry R71H/G230A/H232R/R293Q): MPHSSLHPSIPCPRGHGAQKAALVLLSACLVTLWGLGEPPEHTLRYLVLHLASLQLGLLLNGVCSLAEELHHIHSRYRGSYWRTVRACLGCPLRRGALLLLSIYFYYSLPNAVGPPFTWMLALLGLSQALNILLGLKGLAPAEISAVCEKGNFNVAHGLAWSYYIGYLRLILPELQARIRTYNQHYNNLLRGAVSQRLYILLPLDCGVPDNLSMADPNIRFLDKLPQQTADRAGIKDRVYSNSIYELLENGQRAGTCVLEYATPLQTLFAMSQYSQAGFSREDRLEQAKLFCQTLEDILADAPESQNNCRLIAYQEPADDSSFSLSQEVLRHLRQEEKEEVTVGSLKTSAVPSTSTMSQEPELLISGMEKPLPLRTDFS

The assay concerns the target STING (Homo sapiens, UniProt Q86WV6, G230A/H232R/R293Q/R71H). The experiment in a line: STING reporter assay in THP1-Dual KO-IFNAR2 cells (2′3′cGAMP stimulation, luciferase reporter). The settings on record: 15 μM 2′3′cGAMP stimulation, 24 h, read-out: Pharmaron, THP1_IFNAR2 STING 24 h Luci Normalized: GeoMean EC50. Format: cell-based. Summed up: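 THP1-Dual KO-IFNAR2 cells (2×10E6 cells/mL) with compounds at 0.0017-100 μM final, stimulated with 15 μM final 2′3′cGAMP delivered by Lipofectamine 2000; 24 h at 37 °C. Luciferase in supernatant read with QUANTI-Luc Plus; EC50 derived from luminescence.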
For `CC1(F)CC(C(=O)Nc2c[nH]c3ccc(O[C@H]4C[C@H](c5ccc(C(F)(F)F)cc5)C4)cc23)C1` (stereo partly drawn) [Compound 469, 3-fluoro-3-methyl-N-{5-[(1R,3R)-3-[4-(trifluoromethyl)phenyl]cyclobutoxy]-1H-indol-3-yl}cyclobutane-1-carboxamide], the 50% effective concentration (EC50) (as a rule, the midpoint of the concentration-response curve) was 200 to 1000 nM.
The same measure for `CC(=O)Nc1c[nH]c2ccc(CCOc3ccc(F)c(C(F)(F)F)c3)cc12` [Compound 470, N-(5-{2-[4-fluoro-3-(trifluoromethyl)phenoxy]ethyl}-1H-indol-3-yl)acetamide]: 200 to 1000 nM.
To `CC(=O)Nc1c[nH]c2ccc(CCOc3ccc(OC(F)(F)F)nc3)cc12` [Compound 471, N-[5-(2-{[6-(trifluoromethoxy)pyridin-3-yl]oxy}ethyl)-1H-indol-3-yl]acetamide] belongs 200 to 1000 nM; to `CC(=O)Nc1c[nH]c2ccc(OCC3CCC(C(F)(F)F)CC3)cc12` (centres unmarked) [Compound 472, N-(5-((4-(trifluoromethyl)cyclohexyl)methoxy)-1H-indol-3-yl)acetamide], 200 to 1000 nM; to `CC(=O)Nc1c[nH]c2ccc(OC3Cc4ccc(C(F)(F)F)cc4C3)cc12` (centres unmarked) [Compound 473, N-(5-((5-(trifluoromethyl)-2,3-dihydro-1H-inden-2-yl)oxy)-1H-indol-3-yl)acetamide], 1000 to 5000 nM.
The same measure for `CC(=O)Nc1c[nH]c2ccc(OCCC34CC(C(F)(F)F)(C3)C4)cc12` [Compound 474, N-(5-(2-(3-(trifluoromethyl)bicyclo[1.1.1]pentan-1-yl)ethoxy)-1H-indol-3-yl)acetamide]: 200 to 1000 nM.
Regarding `CC(=O)Nc1c[nH]c2ccc(CCOc3ccc(-c4csc(C)n4)cc3)cc12` [Compound 475, N-(5-{2-[4-(2-methyl-1,3-thiazol-4-yl)phenoxy]ethyl} -1H-indol-3-yl)acetamide], the EC50 lay within 1000 to 5000 nM.
The same measure for `CC(=O)Nc1c[nH]c2ccc(CCOc3cc(Cl)cc(C#N)c3)cc12` [Compound 476, N-{5-[2-(3-chloro-5-cyanophenoxy)ethyl]-1H-indol-3-yl}acetamide]: 1000 to 5000 nM.
To `CC(=O)Nc1c[nH]c2ccc(CCOc3cnc4c(OC(F)(F)F)cccc4c3)cc12` [Compound 477, N-[5-(2-{[8-(trifluoromethoxy)quinolin-3-yl]oxy}ethyl)-1H-indol-3-yl]acetamide] belongs 1000 to 5000 nM; to `CC(=O)Nc1c[nH]c2ccc(OCCC3CN(CC(F)(F)F)CC34CC4)cc12` (centres unmarked) [Compound 478, N-(5-(2-(5-(2,2,2-trifluoroethyl)-5-azaspiro[2.4]heptan-7-yl)ethoxy)-1H-indol-3-yl)acetamide], 1000 to 5000 nM.
The same measure for `CC1(C(=O)Nc2c[nH]c3ccc(OC[C@@H]4C[C@@H]5CN(CC(F)(F)F)C[C@@H]5C4)cc23)COC1` [Compound 479, 3-methyl-N-(5-(((3aR,5r,6aS)-2-(2,2,2-trifluoroethyl)octahydrocyclopenta[c]pyrrol-5-yl)methoxy)-1H-indol-3-yl)oxetane-3-carboxamide]: 40 to 200 nM.
On to `CC(=O)Nc1c[nH]c2ccc(CCOc3cnc4ccc(OC(F)(F)F)cc4c3)cc12` [Compound 480, N-[5-(2-{[6-(trifluoromethoxy)quinolin-3-yl]oxy}ethyl)-1H-indol-3-yl]acetamide], for which the EC50 is 200 to 1000 nM.
The same measure for `CC(=O)Nc1c[nH]c2ccc(CCOc3cncc(C(F)(F)F)c3)cc12` [Compound 481, N-[5-(2-{[5-(trifluoromethyl)pyridin-3-yl]oxy}ethyl)-1H-indol-3-yl]acetamide]: 1000 to 5000 nM.
To `CC(=O)Nc1c[nH]c2ccc(CO[C@H]3C[C@H](c4ccc(C(F)(F)F)cc4)C3)cc12` [Compound 482, N-(5-((trans-3-(4-(trifluoromethyl)phenyl)cyclobutoxy)methyl)-1H-indol-3-yl)acetamide] belongs 40 to 200 nM.
